Experimental data taken from patent US4048307A, “Cyclic adenosine monophosphate 8-substituted derivatives” (priority 1974, dated 1977).

Columns and labels:
[1] = target: Hog Brain Phosphodiesterase (PDE); test: Inhibition of c-AMP hydrolysis by hog brain phosphodiesterase (PDE); assay type: biochemical; details: for Ki: Lineweaver-Burk plot slope and Dixon plot cross-point, read-out: Inhibition II: Inhibition Constant (Ki); for Inhibition I: Relative Inhibition: c-AMP 1.0, derivative 1.0 millimole/liter
Protocol: **PDE inhibition was evaluated based on the relative inhibition observed
when the sample compound was added at the same molar concentration as tha
of the substrate (1 millimole/liter) and the inhibition constant (ki)
calculated according to the enzymological method (Lineweaver-Burk plot).
The enzyme purification was conducted by ammonium sulfate fractionation and passage through DEAE cellulose column according to the modification of the method of T. S. Teo, T. T. Wang et al. (J. Biol. Chemi. 248, 585). […] Reaction and analysis were carried out as taught by Bucher and Sutherland [J. Biol. Chemi., 237, 1244 (1962)].
*: The values were calculated according the following equation: 100
containing no inhibitor.
**: Ki values were calculated from the slope of Lineweaver-Burk plot and
the cross-point of Dixon plot.?

[2] = tested on: CHO-Ki cells; test: Reverse transformation of cultured CHO-Ki cells (c-AMP level elevation, membrane permeability by L.R.C.); assay type: cell-based, Chinese hamster; details: for minimal effective concentration: Cricetulus griseus, microscopic analysis after 16 and 30 hours, read-out: L.R.C. (limiting reverse-transformable concentration)
Protocol: We utilized their test system and tested new derivatives as regards the following two properties:
The tests were conducted in the following manner according to the modification of the method of Hsie and Puck:
2. The membrane permeability was evaluated based on the reverse transformation. More specifically, new derivatives were added at a concentration of 10^-3, 5 × 10^-2, 10^-1, 2× 10^-1, 5 × 10^-1 or 1 millimole/liter to the above-mentionedmedium. After 16 and 30 hours, microscopic analysis was conducted, and the limiting reverse-transformable concentration (referred to as "L.R.C.") was determined and the membrane permeability was evaluated, based on the so determined L.R.C. value.
***The membrane permeability was determined based on the minimum
concentration causing the re-transformation of cultured CHO-Ki cells. (Th

[3] = tested on: Hog Brain Phosphodiesterase (PDE); test: Inhibition of c-AMP hydrolysis by hog brain phosphodiesterase (PDE); assay type: biochemical; details: c-AMP 1.0, derivative 0.5 millimole/liter
[4] = tested on: CHO-Ki cells; details: 10^-3 mole/liter; Hsie and Puck; cited from earlier work
[5] = tested on: Hog Brain Phosphodiesterase (PDE); details: Hsie and Puck; cited from earlier work
[6] = tested on: protein kinases; details: Hsie and Puck; cited from earlier work

Compound	Ki [1]	Inhibition I: Relative Inhibition [1]	minimal effective concentration [2]	Inhibition I: Relative Inhibition [3]	Toxic (remark at 10^-3 mole/liter) [2]	reverse transformation of CHO-Ki (literature) [4]	PDE inhibition (literature) [5]	protein kinase activation (literature) [6]
CCCNc1nc2c(N)ncnc2n1[C@@H]1O[C@@H]2COP(=O)(O)O[C@H]2[C@H]1O [8-CH3 (CH2)2 NH-c-AMP, 8-n-propylamino-c-AMP]	230 µM	51.1%						
CCCSc1nc2c(N)ncnc2n1[C@@H]1O[C@@H]2COP(=O)(O)O[C@H]2[C@H]1O [8-CH3 (CH2)2 S-c-AMP, 8-n-propylmercapto-c-AMP]	78 µM	60.1%	~400 µM					
CCCCNc1nc2c(N)ncnc2n1[C@@H]1O[C@@H]2COP(=O)(O)O[C@H]2[C@H]1O [8-CH3 (CH2)3 NH-c-AMP, 8-n-butylamino-c-AMP]	120 µM	55.6%	~300 µM					
CCCCSc1nc2c(N)ncnc2n1[C@@H]1O[C@@H]2COP(=O)(O)O[C@H]2[C@H]1O [8-CH3 (CH2)3 S-c-AMP, 8-n-butylmercapto-c-AMP]	74 µM	64.3%	~400 µM					
CCCCCNc1nc2c(N)ncnc2n1[C@@H]1O[C@@H]2COP(=O)(O)O[C@H]2[C@H]1O [8-CH3 (CH2)4 NH-c-AMP, 8-n-pentylamino-c-AMP]	72 µM	62.3%						
CCCCCSc1nc2c(N)ncnc2n1[C@@H]1O[C@@H]2COP(=O)(O)O[C@H]2[C@H]1O [8-CH3 (CH2)4 S-c-AMP, 8-n-amylmercapto-c-AMP]	40 µM	76.7%	400 µM					
CCCCCCNc1nc2c(N)ncnc2n1[C@@H]1O[C@@H]2COP(=O)(O)O[C@H]2[C@H]1O [8-CH3 (CH2)5 NH-c-AMP, 8-n-hexylamino-c-AMP]	58 µM	76.1%						
CCCCCCSc1nc2c(N)ncnc2n1[C@@H]1O[C@@H]2COP(=O)(O)O[C@H]2[C@H]1O [8-CH3 (CH2)5 S-c-AMP, 8-n-hexylmercapto-c-AMP]	19 µM	92.4%	300 µM					
CCCCCCCNc1nc2c(N)ncnc2n1[C@@H]1O[C@@H]2COP(=O)(O)O[C@H]2[C@H]1O [8-CH3 (CH2)6 NH-c-AMP, 8-n-heptylamino-c-AMP]	26 µM	78.2%						
CCCCCCCSc1nc2c(N)ncnc2n1[C@@H]1O[C@@H]2COP(=O)(O)O[C@H]2[C@H]1O [8-CH3 (CH2)6 S-c-AMP, 8-n-heptylmercapto-c-AMP]			300 µM	90.4%				
CCCCCCCCNc1nc2c(N)ncnc2n1[C@@H]1O[C@@H]2COP(=O)(O)O[C@H]2[C@H]1O [8-CH3 (CH2)7 NH-c-AMP, 8-n-octylamino-c-AMP]				80.0%				
CCCCCCCCSc1nc2c(N)ncnc2n1[C@@H]1O[C@@H]2COP(=O)(O)O[C@H]2[C@H]1O [8-CH3 (CH2)7 S-c-AMP, 8-n-octylmercapto-c-AMP]	16 µM	95.0%	20 µM		Toxic			
CCCCCCCCCNc1nc2c(N)ncnc2n1[C@@H]1O[C@@H]2COP(=O)(O)O[C@H]2[C@H]1O [8-CH3 (CH2)8 NH-c-AMP, 8-n-nonylamino-c-AMP]	27 µM			71.3%				
CCCCCCCCCSc1nc2c(N)ncnc2n1[C@@H]1O[C@@H]2COP(=O)(O)O[C@H]2[C@H]1O [8-CH3 (CH2)8 S-c-AMP, 8-n-nonylmercapto-c-AMP]	31 µM		10 µM	74.9%	Toxic			
CCCCCCCCCCNc1nc2c(N)ncnc2n1[C@@H]1O[C@@H]2COP(=O)(O)O[C@H]2[C@H]1O [8-CH3 (CH2)9 NH-c-AMP, 8-n-decylamino-c-AMP]	82 µM		~80 µM	67.6%	Toxic			
CCCCCCCCCCSc1nc2c(N)ncnc2n1[C@@H]1O[C@@H]2COP(=O)(O)O[C@H]2[C@H]1O [8-CH3 (CH2)9 S-c-AMP, 8-n-decylmercapto-c-AMP]	46 µM		< 5 µM	68.2%	Toxic			
CCCCCCCCCCCNc1nc2c(N)ncnc2n1[C@@H]1O[C@@H]2COP(=O)(O)O[C@H]2[C@H]1O [8-CH3 (CH2)10 NH-c-AMP, 8-n-undecylamino-c-AMP]	170 µM		~50 µM	51.4%	Toxic			
CCCCCCCCCCCSc1nc2c(N)ncnc2n1[C@@H]1O[C@@H]2COP(=O)(O)O[C@H]2[C@H]1O [8-CH3 (CH2)10 S-c-AMP, 8-n-undecylmercapto-c-AMP]	88 µM	39.1%	< 5 µM		Toxic			
CCCCCCCCCCCCNc1nc2c(N)ncnc2n1[C@@H]1O[C@@H]2COP(=O)(O)O[C@H]2[C@H]1O [8-CH3 (CH2)11 NH-c-AMP, 8-n-dodecylamino-c-AMP]	660 µM		~70 µM	18.3%	Toxic			
CCCCCCCCCCCCSc1nc2c(N)ncnc2n1[C@@H]1O[C@@H]2COP(=O)(O)O[C@H]2[C@H]1O [8-CH3 (CH2)11 S-c-AMP, 8-n-dodecylmercapto-c-AMP]	140 µM	26.4%	< 5 µM		Toxic			
CCCCCCCCCCCCCNc1nc2c(N)ncnc2n1[C@@H]1O[C@@H]2COP(=O)(O)O[C@H]2[C@H]1O [8-CH3 (CH2)12 NH-c-AMP, 8-n-tridecylamino-c-AMP]	840 µM		~90 µM	11.3%	Toxic			
CNc1nc2c(N)ncnc2n1[C@@H]1O[C@@H]2COP(=O)(O)O[C@H]2[C@H]1O [8-CH3 NH-c-AMP, 8-methylamino-c-AMP, reference compound]	210 µM	47.6%	~500 µM					
Nc1ncnc2c1nc(Br)n2[C@@H]1O[C@@H]2COP(=O)(O)O[C@H]2[C@H]1O [Example 8-Br-c-AMP, 8-bromo-c-AMP, reference compound]	470 µM	38.9%	~200 µM					
CCCC(=O)Nc1ncnc2c1ncn2[C@@H]1O[C@@H]2COP(=O)(O)O[C@H]2[C@H]1OC(=O)CCC [N^6,O^2' -dibutyryl-c-AMP]						reversely transformed from the epitherial form to the fibroblast form	inhibits PDE to elevate the intracellular c-AMP level	activate protein kinases
